This series has as its system imiquimod (IMQ)-induced psoriasis-like skin inflammation. As to the kind of experiment: Imiquimod (IMQ)-induced psoriasis-like skin inflammation. The series is classed as in vivo, mice. The note with it: daily topical. As for the experimental part:
A nanoparticle composition comprising the macrolide tacrolimus was produced as detailed in Example 2. The resulting composition was formulated in a spray suitable for topical delivery on the skin. The efficacy of the produced nanoparticles was subsequently tested in an imiquimod (IMQ)-induced psoriasis-like skin inflammation in mice. To this end, psoriasis-like skin inflammation was induced on the ears and shaved backs of the mice by the daily application of 50 mg of 5% Imiquimod (IMQ) cream. Compared to naïve mice, animals treated with IMQ developed clinical signs of disease including statistically significant increases in psoriasis clinical score and ear thickness over time as well as increased spleen weight (splenomegaly) upon termination of the experiment.

Data on one compound can be found in patent publication US10945966B2, “PEGylated lipid nanoparticle with bioactive lipophilic compound” (Eyesiu Medicines B.V., priority 2015, dated 2021).

As to `C[C@H]1C[C@H]2[C@@H]3CCC4=CC(=O)C=C[C@]4(C)[C@@]3(F)[C@@H](O)C[C@]2(C)[C@@]1(O)C(=O)CCl` [Clobetasol], the body weight entry (unwanted side effect) is recorded as “significant reduction”. Further, the spleen weight entry (compared to IMQ-only treated mice) is “significantly reduced”. For the same compound, under “compared to IMQ-only treated mice, significant by day 3 and throughout the rest of the study”, the psoriasis clinical score result is “significantly reduced”. The ear thickness entry (compared to IMQ-only treated mice, significant by day 5 and throughout the rest of the study) was “significantly reduced”.
